Patent publication US20080161219A1, “CLATHRATES OF AN ORGANOSILANE QUATERNARY AMMONIUM COMPOUND AND UREA AND METHODS OF USE” (priority 2007, published 2008)

Key:
[1] = Dissolving clathrate in deionized water (appearance of mixture); type: physicochemical; conditions: 6.4 gms clathrate in 800 ml deionized water (pH=3), shaken; 0.2% quat, 0.6% urea
[2] = Solubility / stability against decomposition in chloroform; type: physicochemical
Description: The following experiments were conducted to determine if the clathrate compositions of this invention would be decomposed by chloroform (a strong solvent).
7.51 grams of urea were slurried in a beaker with 75.4 grams of chloroform by magnetic stirring for 10 minutes. The slurry was then filtered by gravity through filter paper. The filtrate was employed to rinse the beaker to remove all solids and the rinse added to the filter cake. The filtrate was then evaporated in a tared beaker and a residue of 0.01 grams obtained (which was within experimental error). From this experiment, it can be concluded that urea was insoluble in chloroform.
10.21 grams of Example 7, Table 1 organosilane quaternary clathrate was slurried as above in 75 grams of chloroform for 10 minutes and the slurry filtered as above and the filtrate evaporated to dryness. A waxy residue of 0.07 grams remained in the beaker.
It can be concluded that this residue was not the organosilane quaternary. The solids that were filtered were dried to constant weight. 10.24 grams were recovered. 10.21 grams of the clathrate had been added. The difference of +0.03 grams was within experimental error. It can be concluded that the clathrate was not soluble in chloroform and that the organosilane quaternary was not extracted from the clathrate by the chloroform.

In the case of `CCCCCCCCCCCCCCCCCC[N+](C)(C)CCC[Si](OC)(OC)OC.[Cl-]` [Example 7, 3-(trimethoxysilyl)propyldimethyloctadecyl ammonium chloride], the appearance of solution [1] is reported as “clear”.
With `NC(N)=O` [urea] the “residue of evaporated chloroform filtrate” value [2] was 0.01 grams and the solubility in chloroform [2] was “insoluble”.
